One test concerns JUN-D. Kind of test: Western Blot analysis of survival pathways: JUN-D. Type of test: cell-based. On the procedure: Different “survival pathways” were tested by means of Western Blot analysis. The analyses were implemented according to standard methods, as is described in Sambrook et al., 2001, Molecular Cloning (3rd ed.). Antibody dilutions: P-STAT3 (cell signaling) 1: 500, JUN-D (Santa Cruz, Calif.) 1: 1,000.
The densitometrically determined content of oncogene proteins JUN-D and STAT3 was reduced by a quarter or two thirds after DOX treatment in the recovery phase (r=recovery phase). In the “recovery” only BVDU is given, no cytostatic.
(In general: Immunoblotting shows a protein as a band on a membrane.)

The test system of test [1] is uridine phosphorylase (UPase). Kind of test: UPase expression in human pancreas carcinoma cell lines. Type of test: cell-based. The text has this:
BVDU downregulates uridine phosphorylase (UPase) expression in BxPC-3 and AsPC-1 human pancreas carcinoma cell lines. […] In squamous cell carcinoma, high staining of UPase in primary tumors was frequently associated with the presence of lymph node metastases and lower overall survival.

The next test has as its system DT-diaphorase (DT-D). The test can be described thus: DT-diaphorase activity in cell extracts (dicoumarol-inhibitable NAD(P)H: dichlorophenol indophenol reductase). Type of test: cell-based. The method, then: The measurement of the DT-diaphorase (DT-D) was effected as a dicoumarol-inhibitable NAD(P)H: dichlorophenol indophenol reductase, as described in Hodnick et al., Anal. Biochem 252(1), 1997, 165-168 (incorporated by reference herein in its entirety). Extracts were tested of a similar number of cells which had been treated with DOX±BVDU for DT-D activity.

The test system of test [2] is advanced pancreatic adenocarcinoma. Kind of test: Pilot study GEM + CIS + BVDU in patients. Type of test: in vivo, human. The method, then:
Pilot study: 13 Patients (mean age 61, 69% males, 4 stage III, 9 stage IV) with advanced pancreatic adenocarcinoma were treated with i.v. 1.000 mg/m^2 GEM over 30 min on days 1 and 15 of a 28-day schedule. CIS was administered at 50 mg/m^2. BVDU treatment took place on the same day and for four days after chemotherapy in the recovery phase (each four 125 mg tablets per day, resulting in a total dose of 6.000 mg per treatment cycle). As control, data were used of patients of a preceding study which were treated with GEM and CIS, but not with BVDU. With the intention to obtain a control group with a similar proportion of stage IV and stage III diseases as the 13 patients of the pilot study, […] (6 stage III, 15 stage IV) of 96 patients were selected from the Heinemann study by random generator.
Evaluation: Efficacy was measured by overall survival, objective tumor response rate (ORR, according to WHO criteria in the pilot study and RECIST criteria in the dose finding study) and time to progression (TTP) from the first administration onwards. Serum CA19-9 levels were measured at the start and end of each treatment cycle. Safety was evaluated according to NCI-CTC scale.
Evaluation of Progression: Patients were evaluated every five weeks.
Statistical Methods: Survival curves were generated using the Kaplan-Meier method; survival distributions were compared by the log-rank test (Cox-Mantel), and median survival by the Box and Whisker plot.

The subject of a further test is AH13r tumor cells. Kind of test: Hoechst 33258/propidium iodide (Hopi) double coloration for apoptosis. The note with it: co-treatment of cytostatic with BVDU. Type of test: cell-based, rat. From the text:
The indication that the reduction in cell number is based on apoptosis, was detected by means of Hoechst 33258/propidium iodide (Hopi) double coloration.

The test system of another test is AH13r sarcoma cells. Kind of test: Number of AH13r cells under cytostatic ± BVDU and in the recovery phase. The test is classed as cell-based, rat. From the text: AH13r cells were subjected to increasing doses of the cytostatic mitomycin C (MMC). […] This inhibitory effect was maintained even after discontinuation of the cytostatic in the next cycle, in the so-called recovery phase. The cells without MMC and BVDU continued to grow without inhibition.

Setting [3] is: 13 patients, BVDU co-treatment with GEM + CIS.
[4] abbreviates: BVDU co-treatment with GEM + CIS.

Structures are written as SMILES. Entries after “also recorded” stand apart in the source; their conditions may differ.

As for `O=c1[nH]c(=O)n([C@H]2C[C@H](O)[C@@H](CO)O2)cc1/C=C/Br` [BVDU, (E)-5-(2-bromovinyl)-2′-deoxyuridine], in the test with JUN-D (BVDU given in the “recovery” after MMC), the “Inhibition of MMC induced JUN-D overexpression” value was “complete inhibition”. The “Reduction of JUN-D protein content (densitometry)” value with JUN-D (after DOX treatment, recovery phase: only BVDU given, no cytostatic) is given as “approximately one quarter; also recorded: a quarter”. Further, in test [1] (AsPC-1 human pancreas carcinoma cell line), the UPase expression result is “downregulates”. For the same compound, the UPase expression result in test [1] (BxPC-3 human pancreas carcinoma cell line) was “downregulates”. The DT-D activity entry in the test with DT-diaphorase (DT-D) (BVDU alone) is listed as “increases the DT-D activity constantly, but in part only weakly”. Further, the “DT-D activity relative to control cells or cells treated solely with DOX” value in the test on DT-diaphorase (DT-D) (cells treated with DOX±BVDU) is given as “approximately threefold”. Moreover, in test [2] (setting [3]), the Median survival is 447 days and the “Median time to progression (TTP)” value is on record as 280 days. The “Remissions / response rate” value in test [2] (13 patients, WHO criteria, BVDU co-treatment with GEM + CIS) is given as 33%. Also, in test [2] (setting [4]), the “Patients who live more than two years” value was 23% and the “Patients who lived or have lived longer than one year” value came out at 77%. For the same compound, in test [2] (BVDU-treatment group), the “Number of patients living longer than one year after first treatment” value is “Ten of 13” and the “Number of patients living more than two years” value was “three”. For the same compound, the “Apoptosis (HOPI double coloration)” value in the test on AH13r tumor cells is listed as “promotes apoptosis”. Moreover, the “Toxic effect on AH13r cells” value with AH13r sarcoma cells (BVDU given alone) is on record as “no toxic effect”. Further, in the test with AH13r sarcoma cells (after MMC+BVDU, cytostatic discontinued, cells continued to receive BVDU), the “Cell growth in the recovery phase” value was “greatly inhibited in their growth”.
